Source: patent publication US10815246B2, “Thailanstatin analogs” (priority 2017, dated 2020)
Like-named read-outs stand apart in the source and are kept apart here.

Tests used:
Format in all cases: cell-based
[1] = test system: HCT 116 cells; assay: In vitro cytotoxicity, CellTiter-Glo, 72 h (Example 11)
Procedure: Alternatively, the in vitro cytotoxicity of the compounds of the invention may be measured as described in this example. 180 μl of HCT 116 cells (ATCC, Cat # CCL-247) in McCoy's 5a Medium Modified (Sigma-Aldrich®, St. Louis, Mo.)+10% fetal bovine serum were seeded at a density of 5,000 cells/well in a white opaque 96-well plate and incubated for 24 hours at […] in a 5% CO2 incubator. Twenty-four hours post cell seeding, 20 μl of 100× test compounds were diluted such that the final concentrations of the test compounds were in μM concentration. Half log dilutions were used, starting from 10 μM through 0.0001 μM. Puromycin and […]. The cells were incubated with the compounds for 72 hours at […] in a 5% CO2 incubator. After 72 hrs, 100 μl/well of CellTiter-Glo® Luminescent Cell Viability Assay reagent (Promega, Inc., Madison, Wis.; Cat. # G7573) was added to the plates and incubated at room temperature for 30 minutes. The luminescence signals were captured using EnVision 2105 Multimode Plate Reader (PerkinElmer, Waltham, Mass.). The data were analyzed using non-linear regression curve fit (sigmoidal dose response) in GraphPad Prism software (GraphPad Software, La Jolla, Calif.) by plotting the concentration of drug on the X-axis and the mean % inhibition values on the Y-axis.

[2] = test system: PANC 10.05; assay: In vitro cytotoxicity on pancreatic cancer cell line (Example 12); details: PANC 10.05 human pancreatic cancer cell line
[3] = test system: PANC 05.04; assay: as above; details: PANC 05.04 human pancreatic cancer cell line
[4] = test system: A431; assay: In vitro cytotoxicity of toxin compounds, CellTiter-Glo, three days (Example 12); details: Homo sapiens, A-431, 72 h
Procedure: (§1) Various cancer cell lines were obtained from the American Type Culture Collection (ATCC®). The cells were cultured in a humidified 5% CO2 incubator in a media consisting of RPMI 1640, L-glutamine, and 10% FBS. The cells were passaged as needed using standard tissue culture techniques. The cells were harvested and plated out into 96-well tissue culture treated plates at a density of 5000 cells per well. After allowing the cells to equilibrate for ˜24 hr in a humidified 5% CO2 incubator, the cells were treated with the test compounds at the indicated concentrations. The cells were exposed to the test compounds for three days with no media change. After the treatment period, CellTiter-Glo® Luminescent Cell Viability Assay reagent solution (Promega, Inc., Madison, Wis.; Cat. # G7573) was introduced to each well. The Cell TiterGlo-containing plates were then read on a SpectroMax® iD3 Multi-Mode Microplate reader (Molecular Devices, LLC, San Jose, Calif.). The degree of luminescence was dictated by the abundance of live cells.
(§2) The following tables summarize the cytotoxicity (IC50), nM, observed for the specified toxin compounds on the indicated cancer cell lines, NCI-H23, DU145, SW480, SKOV3, A549, HT29, SK-MES-1, SKBR3, HCT116, MCF7, N87, and A431 (ATCC designations).

[5] = test system: A549; assay: as above; details: Homo sapiens, 72 h
Procedure: as §1, §2

[6] = test system: DU145; assay: as above; details: Homo sapiens, DU-145, 72 h
Procedure: as §1, §2

[7] = test system: HCT116; assay: as above; details: Homo sapiens, HCT-116, 72 h
Procedure: as §1, §2

[8] = test system: HT29; assay: as above; details: Homo sapiens, HT-29, 72 h
Procedure: as §1, §2

[9] = test system: MCF7; assay: as above; details: Homo sapiens, 72 h
Procedure: as §1, §2

[10] = test system: N87; assay: as above; details: 72 h
Procedure: as §1, §2

[11] = test system: NCI-H23; assay: as above; details: Homo sapiens, 72 h
Procedure: as §1, §2

[12] = test system: SK-MES-1; assay: as above; details: Homo sapiens, 72 h; SK-MES-1, three days
Procedure: as §1, §2

[13] = test system: SKBR3; assay: as above; details: Homo sapiens, SK-BR-3, 72 h
Procedure: as §1, §2

[14] = test system: SKOV3; assay: as above; details: Homo sapiens, SK-OV-3, 72 h
Procedure: as §1, §2

[15] = test system: SW480; assay: as above; details: Homo sapiens, 72 h
Procedure: as §1, §2

[16] = test system: HEL-92.1.7; assay: In vitro cytotoxicity of toxin compounds (Example 12, Table 4); details: Homo sapiens
Procedure: as §1
(§3) Table 4 gives the cytotoxicity data for Compounds 2, 4, and 6 on the indicated cancer cell lines, HL60, KG-1, NCI-H69, SK-MEL-1, HEL-92.1.7, and K562 (ATCC designations).

[17] = test system: HL60; assay: as above; details: Homo sapiens, HL-60
Procedure: as §1, §3

[18] = test system: K562; assay: as above; details: Homo sapiens
Procedure: as §1, §3

[19] = test system: NCI-H69; assay: as above; details: Homo sapiens
Procedure: as §1, §3

[20] = test system: SK-MEL-1; assay: as above; details: Homo sapiens
Procedure: as §1, §3

SMILES | IC50 ([1]; Homo sapiens, HCT-116, 72 h) [nM] | IC50 ([2]; Panc1005) [nM] | IC50 [3] [nM] | IC50 [4] [nM] | IC50 [5] [nM] | IC50 [6] [nM] | IC50 [7] [nM] | IC50 [8] [nM] | IC50 [9] [nM] | IC50 [10] [nM] | IC50 [11] [nM] | IC50 [12] [nM] | IC50 [13] [nM] | IC50 [14] [nM] | IC50 [15] [nM] | IC50 [17] [nM] | IC50 [18] [nM] | IC50 [19] [nM] | IC50 [20] [nM] | also measured
COC(=O)C[C@@H]1C[C@@]2(CO2)[C@H](O)[C@@H](/C=C/C(C)=C/C[C@@H]2O[C@H](C)[C@H](NC(=O)/C=C\C(C)OC(=O)c3ccccc3)C[C@@H]2C)O1 (stereo partly drawn) [Compound 1, (Z)-5-((2R, 3R, 5S, 6S)-6-((2E, 4E)-5-((3R, 4R, 5R, 7S)-4-hydroxy-7-(2-methoxy-2-oxoethyl)-1,6-dioxaspiro[2.5]octan-5-yl)-3-methylpenta-2,4-dienyl)-2,5-dimethyltetrahydro-2H-pyran-3-ylamino)-5-oxopent-3-en-2-yl benzoate] | 19 | 65 | 22 |  |  |  |  |  |  |  |  |  |  |  |  |  |  |  |  | 
COC(=O)C[C@@H]1C[C@@]2(CO2)[C@H](O)[C@@H](/C=C/C(C)=C/C[C@@H]2O[C@H](C)[C@H](NC(=O)/C=C\C(C)OC(=O)c3ccc(F)cc3)C[C@@H]2C)O1 (stereo partly drawn) [Compound 2, (Z)-5-((2R, 3R, 5S, 6S)-6-((2E, 4E)-5-((3R, 4R, 5R, 7S)-4-hydroxy-7-(2-methoxy-2-oxoethyl)-1,6-dioxaspiro[2.5]octan-5-yl)-3-methylpenta-2,4-dienyl)-2,5-dimethyltetrahydro-2H-pyran-3-ylamino)-5-oxopent-3-en-2-yl 4-fluorobenzoate] | 7 | 21 | 2 | 9.1 | 38.3 | 27.5 | 8.9 | 22.5 | 32.4 | 14.9 | 1.3 | 113 | 166 | 57.2 | 20.2 | 0.08 | 0.58 | 0.96 | 3.26 | IC50 [16]: 0.71 nM
COC(=O)C[C@@H]1C[C@@]2(CO2)[C@H](O)[C@@H](/C=C/C(C)=C/C[C@@H]2O[C@H](C)[C@H](NC(=O)/C=C\C(C)n3nc(C)nc3C)C[C@@H]2C)O1 (stereo partly drawn) [Compound 3, Methyl 2-((3R, 5S, 7R, 8R)-7-((1E, 3E)-5-((2S, 3S, 5R, 6R)-5-((Z)-4-(3,5-dimethyl-1H-1,2,4-triazol-1-yl)pent-2-enamido)-3,6-dimethyltetrahydro-2H-pyran-2-yl)-3-methylpenta-1,3-dienyl)-8-hydroxy-1,6-dioxaspiro[2.5]octan-5-yl)acetate] | 390 | > 2000 | 435 |  |  |  |  |  |  |  |  |  |  |  |  |  |  |  |  | 
COC(=O)C[C@@H]1C[C@@]2(CO2)[C@H](O)[C@@H](/C=C/C(C)=C/C[C@@H]2O[C@H](C)[C@H](NC(=O)/C=C\C(C)c3ccon3)C[C@@H]2C)O1 (stereo partly drawn) [Compound 4, Methyl 2-((3R, 5S, 7R, 8R)-8-hydroxy-7-((1E, 3E)-5-((2S,3S,5R,6R)-5-((Z)-4-(isoxazol-3-yl)pent-2-enamido)-3,6-dimethyltetrahydro-2H-pyran-2-yl)-3-methylpenta-1,3-dien-1-yl)-1,6-dioxaspiro[2.5]octan-5-yl)acetate] | 330 | 7.19 | 4 | 0.7 | 2.8 | 1.9 | 1 | 1.3 | 2.1 | 1.6 | 0.2 | 7.5 | 9.5 | 6.7 | 2.2 | 0.05 | 0.11 | 0.63 | 0.42 | 
COC(=O)C[C@@H]1C[C@@]2(CO2)[C@H](O)[C@@H](/C=C/C(C)=C/C[C@@H]2O[C@H](C)[C@H](NC(=O)/C=C\C(C)c3cc(OC)no3)C[C@@H]2C)O1 (stereo partly drawn) [Compound 5, Methyl 2-((3R, 5S, 7R, 8R)-8-hydroxy-7-((1E, 3E)-5-((2S, 3S, 5R, 6R)-5-((Z)-4-(3-methoxyisoxazol-5-yl)pent-2-enamido)-3,6-dimethyltetrahydro-2H-pyran-2-yl)-3-methylpenta-1,3-dienyl)-1,6-dioxaspiro[2.5]octan-5-yl)acetate] |  |  | 12 |  |  |  |  |  |  |  |  |  |  |  |  |  |  |  |  | IC50 ([1]; HCT 116 cells, 72 hours, read-out: IC50): 310 nM; IC50 [2]: 19.9 nM
COC(=O)C[C@@H]1C[C@@]2(CO2)[C@H](O)[C@@H](/C=C/C(C)=C/C[C@@H]2O[C@H](C)[C@H](NC(=O)/C=C\C(C)c3noc(C)n3)C[C@@H]2C)O1 (stereo partly drawn) [Compound 6, Methyl 2-((3R, 5S, 7R, 8R)-7-((1E, 3E)-5-((2S, 3S, 5R, 6R)-3,6-dimethyl-5-((Z)-4-(5-methyl-1,2,4-oxadiazol-3-yl)pent-2-enamido)tetrahydro-2H-pyran-2-yl)-3-methylpenta-1,3-dienyl)-8-hydroxy-1,6-dioxaspiro[2.5]octan-5-yl)acetate] | 20 | 10.3 | 7 | 1.8 | 4.8 | 3.3 | 2 | 2.7 | 3.8 | 1.4 | 0.4 | 9.3 | 12.3 | 9.7 | 2.7 | 0.04 | 0.09 | 0.21 | 0.78 | IC50 [16]: 0.03 nM
COC(=O)C[C@@H]1C[C@@]2(CO2)[C@H](O)[C@@H](/C=C/C(C)=C/C[C@@H]2O[C@H](C)[C@H](NC(=O)/C=C\C(C)COC3(C)COC3)C[C@@H]2C)O1 (stereo partly drawn) [Compound 7, Methyl 2-((3R, 5S, 7R, 8R)-7-((1E, 3E)-5-((2S, 3S, 5R, 6R)-3,6-dimethyl-5-((Z)-4-methyl-5-((3-methyloxetan-3-yl)oxy)pent-2-enamido)tetrahydro-2H-pyran-2-yl)-3-methylpenta-1,3-dien-1-yl)-8-hydroxy-1,6-dioxaspiro[2.5]octan-5-yl)acetate] | 300 | 98.4 | 22 |  |  |  |  |  |  |  |  |  |  |  |  |  |  |  |  | 
COc1ccc(C[C@H](N)C(=O)N[C@H]2[C@@H](O)[C@H](n3cnc4c(N(C)C)ncnc43)O[C@@H]2CO)cc1 [Puromycin, reference compound] |  |  |  |  |  |  |  |  |  |  |  |  |  |  |  |  |  |  |  | IC50 ([1]; Homo sapiens, HCT 116 cells, 72 hours, read-out: IC50): ~250 nM
